One assay addresses T1, hMCH-1R (Homo sapiens, UniProt Q99705).
T1 construct: expressed in transfected cells
Nature of the assay: MCH-1 receptor binding test (125I-MCH binding to membranes of hMCH-1R transfected CHO/Galpha16 cells). As to conditions: 100 pM 125I-MCH. Here is the method: After the incubation the reaction is filtered using a cell harvester through 0.5% PEI treated fibreglass filters (GF/B, Unifilter Packard). The membrane-bound radioactivity retained on the filter is then determined after the addition of scintillator substance (Packard Microscint 20) in a measuring device (TopCount of Packard). […] The analysis of the concentration binding curve is carried out on the assumption of one receptor binding site.

The conditions of assay [1]: rats, intraventricular administration, compared with control animals; cited from earlier work.
The conditions of assay [2]: long term trials, treated animals; cited from earlier work.
For assay [3] the following is noted: rats; cited from earlier work.

The source of these data is patent publication US20050239826A1 (Boehringer Ingelheim International GmbH, priority 2004, published 2005).

In general, IC50 refers to the concentration that gives 50% inhibition.

T1 sequence (Q99705 whole entry): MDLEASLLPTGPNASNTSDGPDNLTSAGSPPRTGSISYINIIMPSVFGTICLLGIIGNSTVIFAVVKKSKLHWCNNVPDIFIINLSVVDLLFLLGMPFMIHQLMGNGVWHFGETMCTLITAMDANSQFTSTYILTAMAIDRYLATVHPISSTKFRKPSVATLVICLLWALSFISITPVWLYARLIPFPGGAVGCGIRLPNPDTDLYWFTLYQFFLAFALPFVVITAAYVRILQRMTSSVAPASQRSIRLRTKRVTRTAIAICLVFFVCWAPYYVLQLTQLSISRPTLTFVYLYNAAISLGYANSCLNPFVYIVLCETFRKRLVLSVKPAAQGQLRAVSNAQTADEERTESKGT

On hMCH-1R, `Cc1cc(C#Cc2ccc(-c3ccc(Cl)cc3)cn2)ccc1OCCN1CC[C@H](O)[C@](C)(O)C1` [Example 1.5, (3R,4S)-1-(2-{4-[5-(4-chloro-phenyl)-pyridin-2-ylethynyl]-2-methyl-phenoxy}-ethyl)-3-methyl-piperidine-3,4-diol] displayed an IC50 of 10.9 nM.

In the case of `OCCCN(CCOc1ccc(C#Cc2ccc(-c3ccc(Cl)cc3)cn2)cc1)CC1(O)CC1` [Example 2.20, 1-{[(2-{4-[5-(4-chloro-phenyl)-pyridin-2-ylethynyl]-phenoxy}-ethyl)-(3-hydroxy-propyl)-amino]-methyl}-cyclopropanol], at hMCH-1R, the IC50 was 13.8 nM.

`CSCC[C@@H]1NC(=O)[C@@H](NC(=O)[C@H](CCCNC(=N)N)NC(=O)[C@H](CC(C)C)NC(=O)[C@H](CCSC)NC(=O)[C@H](CC(=O)O)NC(=O)[C@H](Cc2ccccc2)NC(=O)[C@@H](N)CC(=O)O)CSSC[C@@H](C(=O)N[C@@H](Cc2c[nH]c3ccccc23)C(=O)N[C@@H](CCC(N)=O)C(=O)N[C@H](C(=O)O)C(C)C)NC(=O)[C@@H]2CCCN2C(=O)[C@H](CCCNC(=N)N)NC(=O)[C@H](Cc2ccc(O)cc2)NC(=O)[C@H](C(C)C)NC(=O)[C@H](CCCNC(=N)N)NC(=O)CNC(=O)[C@H](CC(C)C)NC1=O` [MCH, Melanin-concentrating hormone]: the food intake entry in assay [1] is “food intake was increased”.

Turning to `COCC1=C(C(=O)OC)[C@H](c2ccc(F)c(F)c2)N(C(=O)NCCCN2CCC(c3cccc(NC(C)=O)c3)CC2)C(=O)N1` [SNAP-7941], the body weight result in assay [2] was “lose significant amounts of weight”. In assay [3], the “effects in behavioural experiments” value is “anxiolytic and antidepressant effects”.
